Results on 102 compounds are retold here after ChEMBL document CHEMBL3507680, “University of Dundee, Gates Library screen for HepG2 cell viability”.

A short description of this data set: Human HepG2 cell viability assay in 384 well format. To be noted: HepG2 cells, read-out: Inhibition. Also noted: dose 125 nL, time 70.5 hour; cytotoxicity at 70.5 h: concentration not given beside the values. It counts as toxicity, cell-based.
With `CN1CCCCc2c1nc1c(c2N)CCCC1`, the cytotoxicity at 70.5 h was -5.71%.
With `c1ccc(CN2CCC3(COCc4cnc(NCC5CC5)nc43)C2)cc1` (configuration not stated) the figure was -3.62%; with `Cn1cc(N2CCC3(CCN(C(=O)c4cccn4C)C3)C2=O)cn1` (configuration not stated), -6.34%; with `Cc1nn(C)cc1Cn1cc(Cl)c(N)n1`, -1.77%.
As for `Cc1cc(OCc2ccc(C(=O)O)s2)ccc1Cl`, the figure is -0.232%; as for `O=C(O)c1ccc(COc2cccc(Cl)c2)s1`, -5.91%.
As to `CCn1nc(C)c(CN2CCNCC2)c1C`, the cytotoxicity at 70.5 h is -5.76%.
As for `Cc1noc2nc(C3CC3)c(Cl)c(C(=O)O)c12`, the cytotoxicity at 70.5 h was -7.07%.
As for `Cc1ccc(Cn2nc(C)c3c(C(=O)O)c(Cl)c(C4CC4)nc32)cc1`, the figure is -4.45%; as for `Cc1nn(C)c2nc(C3CC3)c(Cl)c(C(=O)O)c12`, 0.618%; as for `COC(=O)Cn1c(=O)cc(C(F)F)c2c(C)nn(CC(F)F)c21`, -8.33%.
With `Cc1nn(CC(F)F)c2c1c(C(F)F)cc(=O)n2CC(=O)O` the figure was 23.6%; with `CCn1ncc(-c2cc(C(F)(F)F)nc(N3CCC(N)CC3)n2)c1C`, 8.37%.
As for `O=C(O)CCC(=O)Nc1nn(Cc2ccc(F)cc2)cc1Cl`, the figure is 27.9%; as for `Cc1nn(COc2cccc(F)c2)c(C)c1NC(=O)C1CC1`, 2.57%.
`Cc1c(CCC(=O)Nc2ccc(Br)cn2)cnn1C`: the cytotoxicity at 70.5 h was -5.19%.
With `Cc1c(CCC(=O)Nc2ccc(Cl)cn2)cnn1C` the figure was -1.57%; with `CCN(CC)C(=O)c1ccn(COc2c(Cl)cccc2Cl)n1`, -10.4%; with `CC(C)NC(=O)c1ccn(COc2c(Cl)cccc2Cl)n1`, -8.01%.
Consider `CCn1cc(CN(C)S(=O)(=O)c2ccccc2)cn1`, for which the cytotoxicity at 70.5 h was -6.94%.
Turning to `Cc1cc(C(=O)NCc2ccco2)nn1C`, the cytotoxicity at 70.5 h was -11.3%.
With `Cc1ccc(CNC(=O)c2cc(C)n(C)n2)o1` the figure was -8.67%; with `CCN(CC)C(=O)c1ccn(COc2cccc(Cl)c2Cl)n1`, -2.31%.
As for `CCn1cc(CNC(=O)C2CCCC2)cn1`, the figure is -17.8%.
With `CC1CCN(C(=O)C(C)Oc2ccc3c(c2)OCO3)CC1` (configuration not stated) the figure was 8.31%.
For the compound `CC(C(=O)N1CCOCC1)n1cc(Br)cn1` (configuration not stated), the cytotoxicity at 70.5 h was 12.3%.
As for `CC(=O)Nc1ncc(S(=O)(=O)Nc2cccc(F)c2)s1`, the figure is -8.84%; as for `COc1ccc(NS(=O)(=O)c2cnc(NC(C)=O)s2)cc1`, -8.08%; as for `CC(=O)Nc1ncc(S(=O)(=O)Nc2cccc(O)c2)s1`, -13.4%.
As for `CC(=O)Nc1ncc(S(=O)(=O)Nc2ccc3c(c2)OCCO3)s1`, the figure is -7.83%; as for `CSc1nc(N)c2c(n1)N=C1COC(O)=C1C2c1cccc(Cl)c1` (configuration not stated), 47.4%; as for `Cc1ccc(NC(=O)Nc2c(O)oc3ccccc3c2=O)cc1C`, -5.07%.
As for `O=c1c2cc3c(cc2nnn1Cc1ccccc1)OCCO3`, the figure is -2.96%; as for `CCCNC(=O)c1nn(CC)cc1NC(=O)c1cn(C)nc1C`, -12.7%; as for `Cc1nn(C)c2c(=O)n(Cc3ccc(F)cc3)nnc12`, -7.56%.
`CCc1nc(NCCn2cccn2)c2c(n1)c(C)nn2C`: the cytotoxicity at 70.5 h is -7.14%.
As for `Cc1nn(C)c2c(NCc3ccccn3)nc(C(C)C)nc12`, the cytotoxicity at 70.5 h came to 20.7%.
With `Cc1nn(C)c2c(=O)n(C)c(NCC3CCCO3)nc12` (configuration not stated) the figure was -3.29%.
With `COc1ccc(OC)c(Nc2nc3c(C)nn(C)c3c(=O)n2C)c1` the figure was 7.63%; with `CCn1c(NCc2ccccc2)nc2c(C)nn(C)c2c1=O`, -9.48%; with `c1ccc(OCCNCc2cccs2)nc1`, 7.79%.
As for `Fc1cccc(Cl)c1CNCCOc1ccccn1`, the figure is -20.9%.
Turning to `Cc1ccsc1CNCCCOc1ccccn1`, the cytotoxicity at 70.5 h was determined as 1.65%.
As for `COc1ccc(CNc2n[nH]c(C)n2)cc1`, the figure is -11.8%.
With `Cc1cccc(CNc2n[nH]c(C)n2)c1` the figure was -5.26%; with `Cc1cc(C)cc(N2CC(c3nnc(N)s3)CC2=O)c1` (configuration not stated), 3.73%.
For the compound `Cc1c(Cl)cccc1N1CC(c2nnc(N)s2)CC1=O` (configuration not stated), the cytotoxicity at 70.5 h turned out to be 5.68%.
As for `CCOC(=O)c1sc(NC(=O)CCCC(=O)O)c(C#N)c1C`, the figure is -4.89%; as for `CCn1cc(S(=O)(=O)N2CCC(C)CC2)c(C)n1`, -14%; as for `O=S(=O)(c1ccc(F)cc1)n1cc(Cl)cn1`, -10.6%.
As for `O=C(c1c(F)cccc1F)N1CCOCC1`, the figure is 18.9%.
With `CCN(Cc1ccncc1)S(C)(=O)=O` the figure was 27.1%; with `CCN1CCN(S(=O)(=O)c2cc(C)c(Cl)cc2C)CC1`, 2.46%.
For the compound `Cc1ccc(CN2CCN(CC(=O)Nc3ccc4nsnc4c3)CC2)o1`, the cytotoxicity at 70.5 h was -5.71%.
With `CC(C)CCN1CCN(CC(=O)Nc2ccc3nsnc3c2)CC1` the figure was -11.4%; with `CC1CCC2(CC1)NC(=O)c1cc(Br)ccc1-n1nnnc12` (configuration not stated), -4.82%; with `Cc1cccc(C)c1-n1nnnc1C1(NCc2ccco2)CCCC1`, -6.25%.
As for `COc1ccc(-n2nnnc2C(C)(C)Nc2ccc(C)cc2C)cc1`, the figure is 40.2%.
With `Cc1nc(N2CCCC2)ncc1-c1cc(O)nc(N2CCCCC2)n1` the figure was -10.4%; with `CC(C)C(=O)N1CCC(C)(c2cc(O)[nH]n2)CC1`, 20%; with `Cc1cc(CN(C)Cc2ccccc2N2CCCCC2)n[nH]1`, 1.54%.
In the case of `COCC(=O)NC[C@H]1CC[C@H](c2nnc(-c3ccncc3)o2)CC1`, the cytotoxicity at 70.5 h was 15.8%.
With `O=C(NC[C@H]1CC[C@H](c2nnc(-c3cccnc3)o2)CC1)C1CC1` the figure was 6.18%; with `Cc1cncc(C2CCN(C(=O)c3ccc(-n4cccn4)nc3)CC2)n1`, -2.8%.
As for `COc1ccc2[nH]cc(C(=O)N3C[C@@H](O)[C@H](N4CCCC4)C3)c2c1`, the figure is 17.1%.
In the case of `CN1CCC(c2cccc(-c3ccc(C(=O)O)cc3)n2)CC1`, the cytotoxicity at 70.5 h is -2.41%.
As for `Cc1c(CN2CCCC2(C)C(=O)NC2CCCC2)cnn1C` (configuration not stated), the figure is 5.02%; as for `CNc1nccnc1C1CN(Cc2ccc(OCC(=O)O)cc2)CCO1` (configuration not stated), -5.37%; as for `Cn1cc(CN2CCCC(c3nc(O)cc(-c4cccs4)n3)C2)cn1` (configuration not stated), -6.31%.
With `COc1ccc(S(=O)(=O)N2C[C@H](OC)[C@]3(CCCO3)C2)cc1` the figure was -16.2%; with `NC(=O)C1(Cc2ccc(-c3ccccc3)cc2)CCNC1` (configuration not stated), 36.2%; with `Cc1ccccc1CC(=O)N1C[C@@H](O)[C@H](N2CCC(F)(F)CC2)C1`, -7.85%.
As for `Cc1c[nH]nc1C1CCN(C(=O)C2CCOCC2)C1` (configuration not stated), the figure is 12.3%; as for `NC(=O)CN1CCC(c2cccc(Oc3ccccc3)n2)CC1`, -1.34%; as for `c1cc(C2CCCN2CC2CCCCC2)n[nH]1` (configuration not stated), -8.35%.
With `Cc1nc(C2CCN(c3ccccc3)CC2)no1`, the cytotoxicity at 70.5 h turned out to be 8.78%.
For `CC1(C(N)=O)CCCN(c2cnccn2)C1` (configuration not stated), the cytotoxicity at 70.5 h came to 5.53%.
With `CCN(CC)S(=O)(=O)N1CCCC1c1cccc(Nc2ncc(C)s2)n1` (configuration not stated) the figure was -11.3%; with `COCC(=O)N1CCCC1(C)c1nc(C)cc(O)n1` (configuration not stated), -10.5%.
As for `CNc1nc(C2CCCN(C(=O)C(C)(C)OC)C2)nc2c1CN(C)CC2` (configuration not stated), the figure is -13.7%; as for `O=C(NC1CC1)c1cc(C2CCCN(Cc3ccccn3)C2)no1` (configuration not stated), -13.3%; as for `Cc1cc(C)n(CCNC(=O)c2cc(C3CC3)n[nH]2)n1`, -4.88%.
With `COCCC(=O)N1CCC(c2cc3ncc(C)nc3[nH]2)CC1` the figure was -14.7%; with `Cc1cnc(Nc2cccc(C3CCCN3C(=O)CO)n2)s1` (configuration not stated), -6.4%; with `CS(=O)(=O)N1CCC(c2ccncn2)CC1`, -10.9%.
As for `Cc1c(C(=O)NC2CCCOC2)nnn1-c1ccccc1` (configuration not stated), the cytotoxicity at 70.5 h was determined as 17.4%.
As for `CC(C)Nc1nc(O)cc(C2CC(=O)N(Cc3ccccc3)C2)n1` (configuration not stated), the figure is -7.01%; as for `COc1cccc(C(=O)N2C[C@@H](c3ccccc3)[C@@H]3NCCCC[C@@H]32)c1`, -8.79%.
As for `O=S(=O)(c1cn[nH]c1)N1CCCC1c1cc[nH]n1` (configuration not stated), the figure is -7.61%; as for `Cn1cnc(S(=O)(=O)N2CCCC2c2cnccn2)c1` (configuration not stated), -9.6%; as for `COc1ccccc1C1CCCN1CC(=O)N1CCC(C(N)=O)CC1` (configuration not stated), 22.3%.
With `CN(C)c1cc(C2CCCN(S(=O)(=O)c3cn[nH]c3)C2)ccn1` (configuration not stated) the figure was -1.45%; with `CN(C)S(=O)(=O)N1CCCC(c2ccncn2)C1` (configuration not stated), -5.39%; with `O=C1CCCN1CCCC(=O)N1CCCC(c2ccn[nH]2)C1` (configuration not stated), -12%.
Consider `COc1cc2cc(C)c(SCCN3CCCC3)nc2cc1OC`, for which the cytotoxicity at 70.5 h is -6.08%.
With `CCN1CCc2cc(-c3cncn3CC(=O)NC(C)(C)C)ccc21`, the cytotoxicity at 70.5 h is -6.27%.
On to `CN(Cc1ccco1)[C@@H]1CN(C(=O)c2cnccn2)C[C@@H]2CCCO[C@@H]21`, for which the cytotoxicity at 70.5 h was -2.85%.
As for `Cc1cccc(C(=O)N2CCC3(CCN(c4cnn(C)c4)C3=O)C2)n1` (configuration not stated), the figure is -1.73%; as for `CN(C)S(=O)(=O)N1CCO[C@H]2[C@H](Oc3cccnc3)CC[C@@H]21`, -3.81%.
As for `COCCN1C[C@@H]2[C@@H](OC)CCN(Cc3ccco3)[C@@H]2C1`, the figure is -3.76%.
With `Cc1nnc(N2CCCC3(CN(Cc4cnn(C)c4)CCO3)C2)o1` (configuration not stated) the figure was -5.09%.
On to `COCCN1C[C@@H]2[C@@H](OC)CCN(Cc3ccncc3)[C@@H]2C1`, for which the cytotoxicity at 70.5 h was -0.354%.
